Reference: US20020198142A1, “Cyclopeptide derivatives” (Merck Patent GmbH, priority 1997, published 2002)

Tested on: mouse MC3T3 H1 osteoblast cultures
Assay: Cell adhesion test: adhesion of osteoblast cultures in vitro to RGD peptide-coated material surfaces
Assay type: cell-based
Details: 50,000 cells/cm^2 inoculated, serum-free medium, 37°/95% atmospheric humidity, one hour, adhered cells/inoculated cells x 100
Protocol: Example of Cell Adhesion Test
The adhesion of mouse MC3T3 H1 osteoblast cultures in vitro to RGD peptide-coated material surfaces was investigated. In the course of this, 50,000 cells/cm^2 were inoculated and, after incubation in serum-free medium at 37°/95% atmospheric humidity for one hour, the proportion of adherent cells was determined.
Cell adhesion rate [%]=adhered cells/inoculated cells x 100

For “cyclo-(Arg-Gly-Asp-D-Phe-Lys(N^ε—(CO—CH2—O—CH2CH2—O—CH2CH2—NH)2—CO—(CH2)5—NH—CO—CH═CH2))”, the “cell adhesion rate [%]” value was 110.5%.

For “cyclo-(Arg-Gly-Asp-D-Phe-Lys(N^ε—CO—CH2CH2CO—NH—CH2CH2—SH))”, the “cell adhesion rate [%]” value was 86.2%.

“cyclo-(Arg-Gly-Asp-D-Phe-Lys(N^ε—CO—(CH2)5—NH—CO—(CH2)5—NH—CO—CH═CH2))” was tested, and the “cell adhesion rate [%]” value was 92.4%.

For “cyclo-(Arg-Gly-Asp-D-Phe-Lys(N^ε—CO—CH2—O—CH2CH2—O—CH2CH2—NH—CO—(CH2)5—NH—CO—CH═CH2))”, the “cell adhesion rate [%]” value was 109.0%.

“cyclo-(Arg-Gly-Asp-D-Phe-Lys(N^ε—CO—(CH2)5—NH—CO—CH═CH2))” was tested, and the “cell adhesion rate [%]” value was 11.3%.
